This is an account of results in patent US20060183759A1, “Tissue transglutaminase inhibitors” (priority 2004, published 2006).

The target of assay [1] is T1, transglutaminase 2 (TGase 2) (Homo sapiens, UniProt P21980).
T1 sequence (P21980 1-687): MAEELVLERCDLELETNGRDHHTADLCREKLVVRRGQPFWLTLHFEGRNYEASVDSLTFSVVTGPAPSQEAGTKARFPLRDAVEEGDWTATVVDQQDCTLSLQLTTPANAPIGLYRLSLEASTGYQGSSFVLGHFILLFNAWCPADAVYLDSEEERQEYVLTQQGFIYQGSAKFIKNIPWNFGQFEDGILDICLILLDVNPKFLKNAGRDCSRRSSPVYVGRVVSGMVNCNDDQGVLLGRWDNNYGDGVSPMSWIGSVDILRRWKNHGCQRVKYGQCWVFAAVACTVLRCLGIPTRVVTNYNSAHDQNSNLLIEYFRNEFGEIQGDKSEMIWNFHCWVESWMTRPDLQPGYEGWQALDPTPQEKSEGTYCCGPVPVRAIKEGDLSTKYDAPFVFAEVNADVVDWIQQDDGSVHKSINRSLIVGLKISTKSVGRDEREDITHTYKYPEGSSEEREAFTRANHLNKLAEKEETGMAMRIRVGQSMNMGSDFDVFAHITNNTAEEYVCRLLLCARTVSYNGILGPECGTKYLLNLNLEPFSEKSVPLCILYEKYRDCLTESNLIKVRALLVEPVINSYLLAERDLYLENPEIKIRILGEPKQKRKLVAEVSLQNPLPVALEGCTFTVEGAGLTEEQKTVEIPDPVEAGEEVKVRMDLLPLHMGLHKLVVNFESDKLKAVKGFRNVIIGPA
The assay is described as follows: TGase 2 transpeptidase fluorescence assay: incorporation of KXD into N,N-dimethylated-casein (Std and FPC formats). The format is biochemical. The method, then: Transpeptidase activity was monitored as the increase in fluorescence intensity (FI) that accompanies incorporation of the dansylated Lys derivative, α-N-Boc-Lys-CH2-CH2-dansyl (KXD), into the protein substrate, N,N-dimethylated-casein (NMC).
Therefore, a method was used in which full progress curves (FPC) were recorded for the TGase-catalyzed reaction of KXD with NMC in the presence of inhibitor (Table 1-4). Reactions were initiated by enzyme addition to a solution of substrate and inhibitor. […] From such progress curves, IC50 values were calculated using the following equation: IC50=[I]/{(vc/vss)−1}. Progress curves recorded at several inhibitor concentrations were used to determine FPC IC50 values (Table 1-4).

Assay [2] concerns the target T1, transglutaminase 2 (TGase 2). The assay is described as above. Format: biochemical. As to conditions: standard format (Std): reactions terminated after 60 min, FI recorded, four-parameter fit.
[3] abbreviates: full progress curves (FPC), IC50=[I]/{(vc/vss)−1}, from steady-state velocity, read-out: IC50 (μM, FPC).

Read-outs that look alike come from different tables or passages of the source.

For `COc1cccc(-c2csc3nc(SCC(=O)NN)n(-c4cccc(F)c4)c(=O)c23)c1` [986-32, [3-(3-Fluorophenyl)-5-(3-methoxyphenyl)-4-oxo-3,4-dihydrothieno[2,3-d]pyrimidin-2-ylsulfanyl]acetic acid hydrazide], the IC50 in assay [1] (setting [3]) is 0.14 µM; in assay [1] (summary of FPC values, read-out: FPC IC50 values), under 0.16 µM; in assay [2], 0.21 µM.

As for `CCN(CC)CCCOc1ccccc1-c1csc2nc(SCC(=O)NN)n(-c3cccc(F)c3)c(=O)c12` [986-35, [5-[2-(3-Diethylaminopropoxy)phenyl]-3-(3-fluorophenyl)-4-oxo-3,4-dihydrothieno[2,3-d]pyrimidin-2-ylsulfanyl]acetic acid hydrazide], the “TGase 2 inhibitory activity, SAR comment in words (relative to parent compound)” value in assay [1] (qualitative comparison) is on record as “decreased inhibitory activity”. In addition, in assay [2], half-maximal inhibition (IC50) required 4.8 µM.

For `NNC(=O)CSc1nc2sc3c(c2c(=O)n1-c1cccc(F)c1)C(c1ccccc1)CCC3` (stereo not shown) [986-44, [3-(3-Fluorophenyl)-4-oxo-5-phenyl-3,4,5,6,7,8-hexahydrobenzo[4,5]thieno[2,3-d]pyrimidin-2-ylsulfanyl]acetic acid hydrazide], the IC50 in assay [1] (setting [3]) is 0.17 µM; in assay [2] it was 0.93 µM.
